Measured values as given in patent publication EP0415303B1, “Pyrido [2,3-b][1,5]benzoxazepin (and thiazepin)-5(6H)-ones and -thiones and their use in the prevention or treatment of HIV infection” (BOEHRINGER INGELHEIM PHARMACEUTICALS INC., priority 1989, dated 1991).

System: not listed separately
Test: MTT Assay for Cellular Cytotoxicity
Assay type: cell-based
Conditions: human; H9 cells, five days incubation, MTT read at 570nm; read-out: Cytotoxicity Assay (EC₅₀)
Description: In order to roughly assess the cytotoxicity of the compounds provided by the invention, several such compounds were tested in the MTT Cellular Cytotoxicity Assay described below. Compounds having a relatively high EC₅₀ are preferred.
The MTT [3-(4,5-dimethylthiazol-2-yl)-2,5 diphenyl tetrazolium bromide) assay is based on cleavage of tetrazolium bromide by metabolically active cells, resulting in a highly quantitative blue color. This assay has been previously described (1) but has been optimized for the purposes of the testing reported herein.
The H9 cell line (2), an established human lymphoma suspension cell line grown in RPMI 1640 supplemented with 10% fetal bovine serum, is used as the target cell line in the assay. Cells (100»l) are plated in microtest plate wells at a concentration of 10⁵ cells per ml in the presence of varying concentrations of inhibitor. The cells are incubated at 37°C in a humidified CO₂ incubator. Five days later, 20»l of MTT (5mg/ml in RPMI 1640, sonicated, 0.2 micron filtered, and stored at 4°C) is added to each well. After 4 hours additional incubation at 37°C, 60»l of Triton-X is added to each well and thoroughly mixed to aid the solubilization of the crystals. Absolute ethanol (5»l) is added to each well and the resulting mixture is incubated for 30 minutes at 60°C and immediately read on a plate reader (Dynatech) at a wavelength of 570nm. […]

SMILES	CC50 at 120 h [µM]
Cc1ccc2c(c1)Oc1ncc(N)cc1C(=O)N2C [Example 3, 3-Amino-6,9-dimethylpyrido[2,3-b][1,5]benzoxazepin-5(6H)-one]	315

Molecular target: T1, HIV-1 RT (Human immunodeficiency virus type 1 group M subtype B, UniProt P03367)
T1 construct: Reverse transcriptase enzyme from the LAV strain of Human Immunodeficiency Virus (HIV-1) (1) was isolated from the bacterial strain JM109; made in house; host or cells: E. coli JM109, clone pBRTprtl+ in vector pIBI21 (lac promoter, IPTG induction)
Test: Reverse Transcriptase (RT) Assay: inhibition of RNA-dependent DNA polymerase activity
Assay type: biochemical
Set-up: RT Inhibition % @ 10 »g/ml: tested at 10 µg/ml
Conditions: compound at 1 »M (footnote *); read-out: RT Inhibition % (* % inh. @ 1 »M)
Excerpt: Utilizing the Reverse Transcriptase (RT) Assay described below, compounds can be tested for their ability to inhibit the RNA-dependent DNA polymerase activity of HIV-1 RT. Certain specific compounds described in the Examples which appear below, were so tested.
Among the enzymes for which Human Immunodeficiency Virus (HIV-1) encodes is a reverse transcriptase (1), so-named because it transcribes a DNA copy from an RNA template. This activity can be quantitatively measured in a cell-free enzyme assay, which has been previously described (2), and is based upon the observation that reverse transcriptase is able to use a synthetic template [poly r(C) primed with oligo d(G)] to transcribe a radio-labelled, acid-precipitable DNA strand utilizing ³H-dGTP as a substrate.
Reverse transcriptase enzyme from the LAV strain of Human Immunodeficiency Virus (HIV-1) (1) was isolated from the bacterial strain JM109 (3) expressing the DNA clone pBRTprtl+ (2) which is under the control of the lac promotor in the expression vector pIBI21 (4). An overnight culture grown in 2XYT medium (37°C, 225 rpm) (5) supplemented with 100 »g/ml ampicillin for positive selection is inoculated at a 1:40 dilution into M9 medium supplemented with 10»g/ml thiamine, 0.5% casamino acids, and 50 »g/ml ampicillin (5). The culture is incubated (37°C, 225 rpm) until it reaches an OD540 of 0.3-0.4. At that time the repressor inhibitor IPTG (isopropyl β-D-thiogalactopyranoside) is added to 0.5mM, and the mixture is incubated for 2 additional hours. Bacteria are pelleted, resuspended in a 50mM Tris, 0.6mM EDTA, 0.375M NaCl buffer and digested by the addition of lysozyme (1mg/ml) for 30 minutes on ice. The cells are lysed by the addition of 0.2% NP-40 and brought to 1M NaCl.
After removal of the insoluble debris by centrifugation, the protein is precipitated by the addition of 3 volumes of saturated aqueous ammonium sulfate. The enzyme is pelleted, resuspended in RT buffer (50mM Tris pH 7.5, 1mM EDTA, 5mM DTT, 0.1% NP-40, 0.1M NaCl, and 50% glycerol), and stored at -70°C for further use.
The 2X concentrated stock reaction mixture is aliquoted and stored at -20°C. The mixture is stable and thawed for use in each assay. This enzyme assay has been adapted to a 96 well microtiter plate system, and has been previously described (6). Tris buffer (50 mM, pH 7.4), vehicle (solvent diluted to match the compound dilution), or compounds in vehicle are dispensed into 96-well microtiter plates (10»l/well; 3 wells/ compound). The HIV-1 RT enzyme is thawed, diluted in 50mM Tris pH 7.4 so that fifteen »l of diluted enzyme contain 0.001 Unit (one unit is that amount of enzyme to transform 1 micromole of substrate per minute at 25°C), and fifteen »l are dispensed per well. Twenty »l of 0.12-0.5M EDTA are added to the first three wells of the microtiter plate. EDTA chelates the Mg⁺⁺ present and prevents reverse transcription. This group serves as background polymerization which is subtracted from all other groups. Twenty-five ul of the 2X reaction mixture are added to all wells and the assay is allowed to incubate at room temperature for 60 minutes. The assay is terminated by precipitating the DNA in each well with 50»l of 10% trichloracetic acid (TCA) (10% w/v) in sodium pyrophosphate (1% w/v). The microtiter plate is incubated for 15 minutes at 4°C and the precipitate is fixed onto #30 glass fiber paper (Schleicher & Schuell) using a Skatron semi-automatic harvester. The filters are then washed with additional TCA (5%) containing sodium pyrophosphate (1%), rinsed with aqueous ethanol (70%), dried, and transferred to scintillation vials (6). Each vial receives 2 mls of scintillation cocktail and is counted in a Beckman beta counter.
The calculation for percent inhibition is as follows: [formula]

inhibition at 1 µM [%]	SMILES
43	Cc1ccc2c(c1)Oc1ncccc1C(=O)N2C [Example 11, 6,9-Dimethylpyrido[2,3-b][1,5)benzoxazepin-5(6H)-one]
92	Cc1cc(C)c2c(c1)Oc1ncc(N)cc1C(=O)N2C [Example 4, 3-Amino-6,7,9-trimethylpyrido[2,3-b][1,5]benzoxazepin-5(6H)-one]
67	CCN1C(=O)c2cccnc2Oc2cc(C)ccc21 [Example 12, 6-Ethyl-9-methylpyrido[2,3-b][1,5]benzoxazepin-5(6H)-one]
82	CCCN1C(=O)c2cc(N)cnc2Oc2cc(C)cc(C)c21 [Example 6, 3-Amino-7,9-dimethyl-6-(n-propyl)pyrido[2,3-b][1,5]benzoxazepin-5(6H)-one]
33	CCN1C(=O)c2cccnc2Oc2cccc(N)c21 [Example 14, 7-Amino-6-ethylpyrido[2,3-b][1,5]benzoxazepin-5(6H)-one]
93	CCN1C(=O)c2cc(N)cnc2Oc2cc(C)cc(C)c21 [Example 5, 3-Amino-7,9-dimethyl-6-ethylpyrido[2,3-b][1,5]benzoxazepin-5(6H)-one]
57	Cc1ccc2c(c1)Oc1ncc(N)cc1C(=O)N2C [Example 3, 3-Amino-6,9-dimethylpyrido[2,3-b][1,5]benzoxazepin-5(6H)-one]

Same assay, conditions: compound at 2.5 »M (footnote †); read-out: RT Inhibition % († % inh. @ 2.5 »M)

inhibition at 2.5 µM [%]	SMILES
41	Cc1ccc2c(c1)Oc1ncc(O)cc1C(=O)N2C [Example 13, 3-Hydroxy-6,9-dimethylpyrido[2,3-b][1,5]benzoxazepin-5(6H)-one]

Same assay, conditions: poly r(C)/oligo d(G) template, ³H-dGTP, 60 minutes at room temperature

RT Inhibition % @ 10 »g/ml [%]	SMILES
80	CCCN1C(=O)c2cccnc2Oc2ccccc21 [Example 1, 6-(n-Propyl)pyrido[2,3-b][1,5]benzoxazepin-5(6H)-one]
89	C=CCN1C(=O)c2cccnc2Oc2ccccc21 [Example 9, 6-Allylpyrido[2,3-b][1,5]benzoxazepin-5(6H)-one]
89	CCN1C(=O)c2cccnc2Sc2ccccc21 [Example 2, 6-Ethylpyrido[2,3-b][1,5]benzothiazepin-5(6H)-one]
28	CCC(=O)N1C(=O)c2cccnc2Oc2ccccc21 [Example 10, 6-Propionylpyrido[2,3-b][1,5]benzoxazepin-5(6H)-one]
71	CN1C(=O)c2cccnc2Oc2ccccc21 [Example 7, 6-Methylpyrido[2,3-b][1,5]benzoxazepin-5(6H)-one]
77	CCN1C(=O)c2cccnc2Oc2ccccc21 [Example 8, 6-Ethylpyrido[2,3-b][1,5]benzoxazepin-5(6H)-one]
85	CN1C(=O)c2cccnc2Sc2ccccc21 [Example 15, 6-Methylpyrido[2,3-b][1,5]benzothiazepin-5(6H)-one]
